These are literature values, as cited in US8058304B2, “Merged ion channel modulating compounds and uses thereof” (Cardiome Pharma Corp., priority 2004, dated 2011).

The series concerns patients with left ventricular dysfunction after recent and remote myocardial infarction. The following applies: optically pure d-sotalol; SWORD study, Lancet 1996.

On to `CC(C)NC[C@@H](O)c1ccc(NS(C)(=O)=O)cc1` [d-sotalol], for which the “increased mortality compared to placebo” value was 65%.
